Measurements reported in patent US7939712B2, “Method to alleviate abiotic stress in plants by expression of mitochondrial-targeted purple acid phosphatase” (The Chinese University of Hong Kong, priority 2006, dated 2011).
Marks after values point to notes of the source that are not given here.

Test system: BY-2 cells
Experiment: Analysis of mitochondria integrity (Rh123 staining) under NaCl or PEG stress
Format: cell-based, tobacco
Details: wild type BY-2 + 10 mM ascorbic acid
Protocol: Cells were treated with 200 mM NaCl for 1 h or 2% PEG for 1 h before staining with 10 μg/ml rhodamine-123 (Rh123) (R302, Molecular Probes) for 1 h. The signal of Rh123 was excited by green HeNe laser at 543 nm. The filter set HQ590/70 was used and confocal images were collected by the Bio-Rad Radiance 2100 system. 10-25 cells were counted for each sample for statistical analysis.
Transgenic BY-2 cell lines prepared as in Example 1 were cultured to express the GmPAP3 protein and subjected to treatment with sodium chloride or polyethylene glycol (PEG, osmotic stress) as explained above and in the description of the results as shown in FIGS. 3A-3L. The results on mitochondrial integrity were compared with the effect of the presence of ascorbic acid. The results are shown in the table below which summarizes the data in FIGS. 3A-3L. The data are the results of counting 10-25 cells and the experiment repeated 3 times. The percentage was presented as the mean value of 3 experiments±SD, where ** denotes statistical difference (p<0.01) from the wild type BY-2 cells under the same treatment, based on one-way ANOVA followed by the Turkey test.
Wild type (WT) BY-2 cells (FIGS. 3A-3C) and GmPAP3 transgenic BY-2 cell lines #20 and #29 (FIGS. 3G-3I and FIGS. 3J-3L, respectively) without ascorbic acid supplements and wild type BY-2 cells with 10 mM ascorbic acid supplements (+Asc) (FIGS. 3D-3F) were pre-treated in a cell culture medium without stress (FIGS. 3A, 3D, 3G and 3J), with 200 mM NaCl for 1 hr (FIGS. 3B, 3E, 3H and 3K), or with 2% PEG for 1 h (FIGS. 3C, 3F, 3I, 3L) before staining with 10 μg/mL Rh123 for another hour. The signal of Rh123 was observed using a confocal laser scanning microscope (see materials and methods). 10-25 cells were counted for each line. Scale bar=50 μm.

O=C1O[C@H]([C@@H](O)CO)C(O)=C1O [ascorbic acid]
% cells with intact mitochondria, NaCl (200 mM NaCl 1 h, mean of 3 experiments ± SD): 86.20 ± 3.3** %
% cells with intact mitochondria, PEG (2% PEG 1 h, mean of 3 experiments ± SD): 82.16 ± 3.7** %
% cells with intact mitochondria, Control (medium without stress): 100%
